The text below walks through data of publication PMC3894558, “Chemical signatures and new drug targets for gametocytocidal drug development” (Scientific Reports, 2014).

The test system of the assay is P. falciparum 3D7 gametocytes. Kind of assay: alamarBlue gametocyte viability assay, strain 3D7. The note with it: for Max Resp: DMSO set at 0%, 100 nM epoxomicin set at -100%; for Curve Class / IC50: stages III-V 3D7 gametocytes; for IC50: 11 concentrations, 1:3 dilution. Type of assay: cell-based, Plasmodium falciparum. Background: The colour change of resazurin is a common sign of viable cells or microbes.

Like-named read-outs stand apart in the source and are kept apart here.

Usually IC50 stands for the midpoint of a concentration-inhibition curve. Regarding `CC(C)(C)c1ccc(O)c(CNC2CCCCC2)c1` [MMV665785], under “Malaria Box”, the “Max Resp” value is reported as -50% and the “Curve Class” value is reported as -1.2. The IC50 (Malaria Box, read-out: IC50) was determined as 0.148 µM.
On the same counts, the results for `O=c1cc(NC2CCN(CCCc3ccccc3)CC2)c2cc(Cl)ccc2o1` [MMV665786] are -89%, -2.1 and 14.8 µM.
Regarding `CC(NCc1ccccc1)c1cc(Cl)ccc1O` (stereo not drawn) [MMV665789], for the setting “Malaria Box”, the “Max Resp” value is recorded as -58% and the “Curve Class” value is -1.2. In addition, under “Malaria Box, read-out: IC50”, the IC50 was 1.32 µM.
On the same counts, the results for `FC(F)(F)c1cccc(Nc2nc3ccccc3nc2Nc2cccc(C(F)(F)F)c2)c1` [MMV665794] are -98%, -2.1 and 18.7 µM.
On to `CCOc1cc(Br)c(C(C)NC(=O)c2cccc(OC)c2)cc1OCC` (stereo not drawn) [MMV665796], for which, under “Malaria Box”, the “Max Resp” value is recorded as -58% and the “Curve Class” value is given as -2.2. Also, the IC50 (Malaria Box, read-out: IC50) turned out to be 37.2 µM.
Consider `CCCCOC(=O)c1ccc(Nc2cc(C)nc3ccc(OC)cc23)cc1` [MMV665797], for which, for the setting “Malaria Box”, the “Max Resp” value is on record as -47%, the “Curve Class” value is -2.2 and the IC50 entry was “Inactive”.
Regarding `FC(F)(F)c1cccc(Nc2nc(-c3ccccc3)nc3ncccc23)c1` [MMV665798], where the note is “Malaria Box”, the “Max Resp” value was -7%, the “Curve Class” value was determined as 4 and the IC50 result is recorded as “Inactive”.
As for `COc1ccc(C(=O)Nc2ccc(Cl)cc2C(=O)Nc2ccncc2)cc1` [MMV665799], for the setting “Malaria Box”, the “Max Resp” value was -28%, the “Curve Class” value is on record as 4 and the IC50 result is recorded as “Inactive”.
In the case of `CCOc1cc(Cl)c(C(C)NC(=O)c2ccccc2)cc1OCC` (stereo not drawn) [MMV665800], under “Malaria Box”, the “Max Resp” value was -48%, the “Curve Class” value is -2.2 and the IC50 result is “Inactive”.
`CCOc1cc(Cl)c(C(C)NC(=O)c2cccc(OC)c2)cc1OCC` (stereo not drawn) [MMV665803]: for the setting “Malaria Box”, the “Max Resp” value is on record as -58% and the “Curve Class” value is on record as -2.2. Besides, under “Malaria Box, read-out: IC50”, the IC50 worked out at 29.6 µM.
As to `CCOc1ccc(-c2nonc2NC(=O)c2cccc(C)c2)cc1OCC` [MMV665805], under “Malaria Box”, the “Max Resp” value is listed as -69% and the “Curve Class” value was -1.2. Further, the IC50 (Malaria Box, read-out: IC50) turned out to be 4.18 µM.
Consider `Cc1c(C)n(CC(O)CNC2CCCCC2C)c2ccccc12` (stereo not drawn) [MMV665806], for which, under “Malaria Box”, the “Max Resp” value is given as -89% and the “Curve Class” value is recorded as -1.1. Also, the IC50 (Malaria Box, read-out: IC50) amounted to 3.32 µM.
In the case of `O=C(Nc1cccc(C(F)(F)F)c1)c1cc(Cl)ccc1O` [MMV665807], under “Malaria Box”, the “Max Resp” value is listed as -84% and the “Curve Class” value is listed as -2.1. Also, the IC50 (Malaria Box, read-out: IC50) stood at 20.9 µM.
On the same counts, the results for `Oc1ccc(Br)cc1CN1CCN(Cc2ccc(Cl)cc2)CC1` [MMV665809] are -58%, -1.2 and 3.72 µM.
For the molecule `O=C(Nc1cccc(C2=NCCN2)c1)Nc1cccc(C2=NCCN2)c1` [MMV665810], under “Malaria Box”, the “Max Resp” value is on record as -78% and the “Curve Class” value was -2.2. Where the note is “Plasmodium falciparum, 3D7, Malaria Box, read-out: IC50”, the IC50 worked out at 18.7 µM.
Consider `CCc1ccc(CNCC(O)c2ccccc2)cc1.Cl` (stereo not drawn) [MMV665812], for which, for the setting “Malaria Box”, the “Max Resp” value is given as -74% and the “Curve Class” value is reported as -1.2. For the same molecule, the IC50 (Malaria Box, read-out: IC50) was determined as 5.26 µM.
As to `CCOC(=O)c1cnc2ccc(OC)cc2c1NCc1ccccc1` [MMV665813], where the note is “Malaria Box”, the “Max Resp” value was -14%, the “Curve Class” value worked out at 4 and the IC50 entry is recorded as “Inactive”.
For the molecule `Oc1c(C(Nc2ccccn2)c2cccc(Oc3ccccc3)c2)ccc2cccnc12` (stereo not drawn) [MMV665814], under “Malaria Box”, the “Max Resp” value was -107% and the “Curve Class” value is reported as -2.1. Under “Malaria Box, read-out: IC50”, the IC50 is 9.35 µM.
For `CC(C)(C)CC(C)(C)NCC(O)COc1ccc2c(c1)CCC2.Cl` (stereo not drawn) [MMV665817], under “Malaria Box”, the “Max Resp” value is recorded as -107% and the “Curve Class” value is recorded as -2.1. Also, the IC50 (Malaria Box, read-out: IC50) was 9.35 µM.
On the same counts, the results for `COc1ccc2c(=O)cc(C(Cl)(Cl)Cl)oc2c1` [MMV665820] are -101%, -1.1 and 3.72 µM.
On to `Cn1c(C(=O)c2cccc3ccccc23)nc2ccccc21` [MMV665824], for which, for the setting “Malaria Box”, the “Max Resp” value was -53%, the “Curve Class” value is -2.4 and the IC50 result is reported as “Inactive”.
In the case of `COc1cccc(NC(=O)Cn2c(C)c(C#N)c3ccccc32)c1` [MMV665826], where the note is “Malaria Box”, the “Max Resp” value is -52%, the “Curve Class” value is -2.2 and the IC50 result is on record as “Inactive”.
For `CCOC(=O)c1cn(CC)c2cc(N3CCCCC3)c(F)cc2c1=O` [MMV665827], for the setting “Malaria Box”, the “Max Resp” value was 7%, the “Curve Class” value was 4 and the IC50 result was “Inactive”.
Consider `CC1CC2=C(CC1CNCCCN(C)C)C(C)(C)CCC2` (stereo not drawn) [MMV665830], for which, for the setting “Malaria Box”, the “Max Resp” value is on record as -88% and the “Curve Class” value is -1.1. For the same molecule, where the note is “Malaria Box, read-out: IC50”, the IC50 came to 1.66 µM.
Take `CCOC(=O)c1c(NC(=O)c2ccccc2)sc2c(O)c(CN(CC)CC)ccc12` [MMV665831]: under “Malaria Box”, the “Max Resp” value is listed as -58% and the “Curve Class” value is -2.2. Besides, the IC50 (Malaria Box, read-out: IC50) was determined as 7.43 µM.
`COc1ccc(/C=C2/SC(=Nc3ccccc3)NC2=O)cc1` [MMV665836]: where the note is “Malaria Box”, the “Max Resp” value was found to be 13%, the “Curve Class” value was determined as 4 and the IC50 entry is recorded as “Inactive”.
On to `O=C(Nc1ccc(-c2nc3ccccc3[nH]2)cc1)c1ccc(Cl)c(Cl)c1` [MMV665840], for which, under “Malaria Box”, the “Max Resp” value is listed as -16%, the “Curve Class” value is recorded as 4 and the IC50 result is recorded as “Inactive”.
Take `CCCc1cc(O)c2c3c(c(=O)oc2c1)CN(C)CC3` [MMV665841]: where the note is “Malaria Box”, the “Max Resp” value is listed as -28% and the “Curve Class” value is given as -1.2. The IC50 (Malaria Box, read-out: IC50) worked out at 0.662 µM.
Regarding `O=c1c2c([nH]c3ccccc13)CCCC2` [MMV665843], where the note is “Malaria Box”, the “Max Resp” value is given as -7%, the “Curve Class” value came out at 4 and the IC50 entry is reported as “Inactive”.
On the same counts, the results for `Oc1ccc(Cl)cc1CNc1nc2ccccc2[nH]1` [MMV665850] are -50%, -2.2 and “Inactive”.
Take `O=C(Nc1ccc(Cl)c(Cl)c1)Nc1ccc(Cl)c(Cl)c1` [MMV665852]: where the note is “Malaria Box”, the “Max Resp” value was -88% and the “Curve Class” value is on record as -2.1. The concentration for half-maximal inhibition (IC50) (Malaria Box, read-out: IC50) came to 23.5 µM.
Turning to `CCOc1c(Cl)cc(CNC(C)C(O)c2ccccc2)cc1OC` (stereo not drawn) [MMV665857], under “Malaria Box”, the “Max Resp” value is listed as -77% and the “Curve Class” value is -2.2. Also, the IC50 (Malaria Box, read-out: IC50) was 14.8 µM.
As to `CCCCNc1nc(NC(C)(C)C)nc(NC(C)(C)C)n1` [MMV665864], for the setting “Malaria Box”, the “Max Resp” value was -93% and the “Curve Class” value is -2.1. Further, the IC50 (Malaria Box, read-out: IC50) worked out at 13.2 µM.
Regarding `Cc1cc(Nc2ccc(C)c(Cl)c2)n2nc(C(F)(F)F)nc2n1` [MMV665874], for the setting “Malaria Box”, the “Max Resp” value is reported as -2%, the “Curve Class” value is listed as 4 and the IC50 result is reported as “Inactive”.
In the case of `Cl.Cn1c(=O)n(C)c2cc(CNCCNc3ccnc4cc(Cl)ccc34)ccc21` [MMV665875], for the setting “Malaria Box”, the “Max Resp” value was -41% and the “Curve Class” value is -1.2. For the same molecule, the IC50 (Malaria Box, read-out: IC50) is 0.372 µM.
As to `CCC(c1ccccc1)c1nn2c(-c3cccs3)nnc2s1` (stereo not drawn) [MMV665876], for the setting “Malaria Box”, the “Max Resp” value is listed as -47%, the “Curve Class” value was -2.2 and the IC50 entry is given as “Inactive”.
For `COc1cccc(NC(=O)[C@H](C(C)C)n2c(=O)[nH]c3ccccc3c2=O)c1` [MMV665878], where the note is “Malaria Box”, the “Max Resp” value is -82% and the “Curve Class” value is -1.1. Besides, the IC50 (Malaria Box, read-out: IC50) was 2.64 µM.
Turning to `CC(C)(C)C(=O)Nc1ccc(C(=O)Nc2cccc(-c3nc4ccccc4[nH]3)c2)cc1` [MMV665879], under “Malaria Box”, the “Max Resp” value is reported as -23%, the “Curve Class” value is 4 and the IC50 result is reported as “Inactive”.
As to `COc1ccc(CNC(=O)c2cc3c(=O)n4ccccc4nc3n(CCc3ccccc3)c2=N)cc1` [MMV665881], for the setting “Malaria Box”, the “Max Resp” value was -29%, the “Curve Class” value amounted to 4 and the IC50 result is on record as “Inactive”.
As for `OC(CNC1CCCCC1)Cn1c2ccc(I)cc2c2cc(I)ccc21` (stereo not drawn) [MMV665882], where the note is “Malaria Box”, the “Max Resp” value is reported as -97% and the “Curve Class” value was -2.1. For the same molecule, the IC50 (Malaria Box, read-out: IC50) is 2.96 µM.
`O=C(Nc1cccc(-c2nc3ccccc3[nH]2)c1)c1cccc(NC(=O)c2ccco2)c1` [MMV665883]: where the note is “Malaria Box”, the “Max Resp” value is -25%, the “Curve Class” value is recorded as 4 and the concentration for half-maximal inhibition (IC50) result is “Inactive”.
On to `CC(Oc1ccc(NC(=O)c2cccs2)cc1)C(=O)c1ccc(Cl)cc1` (stereo not drawn) [MMV665886], for which, for the setting “Malaria Box”, the “Max Resp” value stood at 44% and the “Curve Class” value turned out to be 2.2. For the same molecule, under “Malaria Box, read-out: IC50”, the IC50 worked out at 18.7 µM.
With `O=C(Nc1ccccc1O)c1ccc(Oc2cccc(C(=O)Nc3ccccc3O)c2)cc1` [MMV665888], for the setting “Malaria Box”, the “Max Resp” value is reported as -76% and the “Curve Class” value is -2.2. In addition, the IC50 (Malaria Box, read-out: IC50) came to 14.8 µM.
With `COc1ccc(-c2nonc2NC(=O)c2cccc(C)c2)cc1OC` [MMV665890], under “Malaria Box”, the “Max Resp” value was -38%, the “Curve Class” value is on record as -3 and the IC50 entry is “Inactive”.
With `c1ccc(-c2ccc(-c3nc4ccccc4[nH]3)cc2)cc1` [MMV665891], under “Malaria Box”, the “Max Resp” value is 18%, the “Curve Class” value is 4 and the IC50 entry is given as “Inactive”.
Regarding `CC(=O)c1sc(NC(=O)Nc2ccc(C)cc2C)nc1C` [MMV665894], for the setting “Malaria Box”, the “Max Resp” value is reported as -23%, the “Curve Class” value is 4 and the IC50 result is “Inactive”.
Consider `COc1ccc2nc(N)nc(C)c2c1` [MMV665897], for which, under “Malaria Box”, the “Max Resp” value is -66% and the “Curve Class” value is -2.2. In addition, for the setting “Malaria Box, read-out: IC50”, the IC50 amounted to 29.6 µM.
Consider `COc1cc(C(=O)Nc2ccc(-c3nc4ccccc4[nH]3)cc2)cc(OC)c1OC` [MMV665898], for which, where the note is “Malaria Box”, the “Max Resp” value is given as -26%, the “Curve Class” value is listed as 4 and the IC50 entry was “Inactive”.
